The series in a line: storage stability / shelf life of the solid form. The conditions noted are these: storage over time. It is filed as physicochemical.

With `NC(=O)C(c1ccccc1)(c1ccccc1)[C@@H]1CCN(CCc2ccc3c(c2)CCO3)C1` [darifenacin hydrate, (S)-2-{1-[2-(2,3-dihydrobenzofuran-5-yl)ethyl]-3-pyrrolidinyl}-2,2-diphenylacetamide hydrate], the “stability on storage (in words)” value runs as follows: (hydrate) “stable over long periods”; (listed as solid hydrate, hydrate) “remain stable for well over a year”.
In the case of `NC(=O)C(c1ccccc1)(c1ccccc1)[C@@H]1CCN(CCc2ccc3c(c2)CCO3)C1` [free base, (S)-2-{1-[2-(2,3-dihydrobenzofuran-5-yl)ethyl]-3-pyrrolidinyl}-2,2-diphenylacetamide, reference compound], the “stability on storage (in words)” value is “very unstable”.
Regarding `NC(=O)C(c1ccccc1)(c1ccccc1)[C@@H]1CCN(CCc2ccc3c(c2)CCO3)C1` [toluene solvate, (S)-2-{1-[2-(2,3-dihydrobenzofuran-5-yl)ethyl]-3-pyrrolidinyl}-2,2-diphenylacetamide toluene solvate], the “stability on storage (in words)” value is “not stable over medium to long term storage periods”.

(Values after patent US7696357B2, “Stable hydrate of a muscarinic receptor antagonist” (Novartis International Pharmaceutical Ltd., priority 2002, dated 2010).)
